# From US20090042962A1, “Therapeutic Agent for Keratoconjunctival Disorder” (SANTEN PHARMACEUTICAL CO., LTD., priority 2005, published 2009)
# Test system: corneal disorder models
# Experiment: Test for therapeutic effect on corneal damage (exorbital lacrimal gland removal, fluorescein staining score)
# Type: in vivo, male SD rats
# Details: for Improvement ratio (%): instilled 6 times a day for 14 days; for Mean value of scores: instilled into both eyes 6 times a day for 14 days, fluorescein staining total score
# Protocol: Using male SD rats, corneal disorder models were produced in accordance with the method of Fujihara et al. (Invest. Opthalmol. Vis. Sci. 42 (1): 96-100 (2001)) After the production of the corneal disorder models, the corneal damage score was evaluated in accordance with the method of Murakami et al. (Journal of the eye 21 (1): 87-90 (2004)), and the improvement ratio of a corneal damage after instillation was obtained.
# Male SD rats were systemically anesthetized by an administration of Nembutal. Subsequently the exorbital lacrimal gland of each rat was removed and a corneal damage was induced over a period of 2 months.
# Then, 4′-[[4-methyl-6-(1-methylbenzimidazol-2-yl)-2-n-propylbenzimidazol-1-yl]methyl]-1,1′-biphenyl-2-carboxylic acid (hereinafter referred to as “Compound A”), 2-n-butyl-4-spirocyclopentane-1-[[2′-(1H-tetrazol-5-yl)-1,1′-biphenyl-4-yl]methyl]-2-imidazolin-5-one (hereinafter referred to as “Compound B”), 2-butyl-4-chloro-5-hydroxymethyl-1-[[2′-(1H-tetrazol-5-yl)-1,1′-biphenyl-4-yl]methyl]imidazole monopotassium salt (hereinafter referred to as “Compound C”), 2-ethoxy-1-[[2′-(1H-tetrazol-5-yl)-1,1′-biphenyl-4-yl]methyl]-1H-benzimidazol-7-carboxylic acid (hereinafter referred to as “Compound D”) […] N-[[2′-(1H-tetrazol-5-yl)-1,1′-biphenyl-4-yl]methyl]-N-valeryl-L-valine (hereinafter referred to as “Compound E”), or 4-(1-hydroxy-1-methylethyl)-2-n-propyl-1-[[2′-(1H-tetrazol-5-yl)-1,1′-biphenyl-4-yl]methyl]imidazol-5-carboxylic acid monohydrate (hereinafter referred to as “Compound F”) was administered to the rats as follows.
# A physiological saline solution containing Compound A (0.005%) was instilled into both eyes 6 times a day for 14 days (one group consisting of 4 animals, 8 eyes).
# A physiological saline solution containing Compound B (0.04%) was instilled into both eyes 6 times a day for 14 days (one group consisting of 4 animals, 8 eyes).
# A physiological saline solution containing Compound C (0.5%) was instilled into both eyes 6 times a day for 14 days (one group consisting of 3 animals, 6 eyes).
# A phosphate-buffered saline solution containing Compound D (0.004%) was instilled into both eyes 6 times a day for 14 days (one group consisting of 4 animals, 8 eyes).
# A phosphate-buffered saline solution containing Compound E (0.004%) was instilled into both eyes 6 times a day for 14 days (one group consisting of 4 animals, 8 eyes).
# A phosphate-buffered saline solution containing Compound F (0.004%) was instilled into both eyes 6 times a day for 14 days (one group consisting of 4 animals, 8 eyes).
# In a control group, physiological saline or phosphate-buffered saline was instilled into both eyes 6 times a day for 14 days (one group consisting of 4 animals, 8 eyes).
# Fourteen days after the start of instillation, the damaged parts of the cornea were stained with fluorescein. For each of the upper, middle and lower parts of the cornea, the degree of fluorescein staining was evaluated by scoring according to the criteria shown below and the improvement ratio of corneal damage was calculated from the mean value of the total scores for each of the above-mentioned parts. Also for normal eyes, the mean value of the total scores for each of the above-mentioned parts was obtained.
# 0: No punctate staining 1: Scattered staining (punctate staining being separated) 2: Moderate staining (a part of punctate staining being adjacent) 3: Heavy staining (punctate staining being barely separated)
# Incidentally, the mean value of the scores is a mean of those of 8 cases or 6 cases, respectively.
# Improvement ratio (%)={(control)−(the present compound)}/damage degree×100 Damage degree=(control)−(normal eye)
# [1] = 0.004% in phosphate-buffered saline, vs phosphate-buffered saline control, Table 2
# [2] = 0.004% in phosphate-buffered saline, Table 2 (normal eye 2.5, control 4.6)
structure (smiles),measurement,setting,value
"CCCCC1=NC2(CCCC2)C(=O)N1Cc1ccc(-c2ccccc2-c2nnn[nH]2)cc1 [Compound B, 2-n-butyl-4-spirocyclopentane-1-[[2′-(1H-tetrazol-5-yl)-1,1′-biphenyl-4-yl]methyl]-2-imidazolin-5-one]",Improvement ratio (%),"0.04% in physiological saline, vs physiological saline control, Table 1",62.5%
same,Mean value of scores,"0.04% in physiological saline, Table 1 (normal eye 3.3, control 4.9)",3.9
"CCOc1nc2cccc(C(=O)O)c2n1Cc1ccc(-c2ccccc2-c2nnn[nH]2)cc1 [Compound D, 2-ethoxy-1-[[2′-(1H-tetrazol-5-yl)-1,1′-biphenyl-4-yl]methyl]-1H-benzimidazol-7-carboxylic acid]",Improvement ratio (%),[1],47.6%
same,Mean value of scores,[2],3.6
"CCCc1nc2c(C)cc(-c3nc4ccccc4n3C)cc2n1Cc1ccc(-c2ccccc2C(=O)O)cc1 [Compound A, 4′-[[4-methyl-6-(1-methylbenzimidazol-2-yl)-2-n-propylbenzimidazol-1-yl]methyl]-1,1′-biphenyl-2-carboxylic acid]",Improvement ratio (%),"0.005% in physiological saline, vs physiological saline control, Table 1",62.5%
same,Mean value of scores,"0.005% in physiological saline, Table 1 (normal eye 3.3, control 4.9)",3.9
"CCCc1nc(C(C)(C)O)c(C(=O)O)n1Cc1ccc(-c2ccccc2-c2nnn[nH]2)cc1.O [Compound F, 4-(1-hydroxy-1-methylethyl)-2-n-propyl-1-[[2′-(1H-tetrazol-5-yl)-1,1′-biphenyl-4-yl]methyl]imidazol-5-carboxylic acid monohydrate]",Improvement ratio (%),"0.004% in phosphate-buffered saline, vs phosphate-buffered saline control, Table 3",65.9%
same,Mean value of scores,"0.004% in phosphate-buffered saline, Table 3 (normal eye 2.2, control 6.3)",3.6
"CCCCC(=O)N(Cc1ccc(-c2ccccc2-c2nnn[nH]2)cc1)[C@H](C(=O)O)C(C)C [Compound E, N-[[2′-(1H-tetrazol-5-yl)-1,1′-biphenyl-4-yl]methyl]-N-valeryl-L-valine]",Improvement ratio (%),[1],33.3%
same,Mean value of scores,[2],3.9
"CCCCc1nc(Cl)c(CO)n1Cc1ccc(-c2ccccc2-c2nnn[nH]2)cc1.[K] [Compound C, 2-butyl-4-chloro-5-hydroxymethyl-1-[[2′-(1H-tetrazol-5-yl)-1,1′-biphenyl-4-yl]methyl]imidazole monopotassium salt]",Improvement ratio (%),"0.5% in physiological saline, vs physiological saline control, Table 1",87.5%
same,Mean value of scores,"0.5% in physiological saline, Table 1 (normal eye 3.3, control 4.9)",3.5
